Values of other authors in patent US20070043030A1, “Pharmaceutical compositions for treating premature ejaculation by pulmonary inhalation” (Vectura Limited, priority 2003, published 2007).

Key:
ejaculation = conditions: oral administration
[1] = system: male patients with primary PE; conditions: oral, 3 to 5 hours before planned intercourse, 4-week treatment period
rapid ejaculation = conditions: daily oral doses of 25-50 mg
[2] = oral formulation used for antidepressive indications

Row | SMILES | delay in ejaculation (ejaculation) | efficacy in primary PE [1] | further results
1 | CNCCC(Oc1ccc(C(F)(F)F)cc1)c1ccccc1 (centres unmarked) [fluoxetine] | effective in producing a delay in ejaculation | – | –
2 | CCCc1nn(C)c2c(=O)[nH]c(-c3cc(S(=O)(=O)N4CCN(C)CC4)ccc3OCC)nc12 [sildenafil] | – | optimal efficacy | –
3 | CNCCCN1c2ccccc2CCc2ccc(Cl)cc21 [desmethylclomipramine] | – | – | plasma half-life (oral dose (clomipramine: single oral dose)): around 36 hours
4 | Fc1ccc([C@@H]2CCNC[C@H]2COc2ccc3c(c2)OCO3)cc1 [paroxetine] | effective in producing a delay in ejaculation | comparable efficacy | –
5 | CN(C)CCCN1c2ccccc2CCc2ccc(Cl)cc21 [clomipramine, 3-chloro-5-[3-(dimethylamino)-propyl]-10,11-dihydro-5H-dibenz[b,f]azepine] | – | comparable efficacy | effect on ejaculatory latency (rapid ejaculation): effective in significantly lengthening ejaculatory latencies; time of peak plasma levels after dosage (oral administration): two; frequency of frequently reported side effects (dry mouth, sweating, constipation, blurred vision, nausea, drowsiness, headache, dizziness) [2]: > 10%
6 | CN[C@H]1CC[C@@H](c2ccc(Cl)c(Cl)c2)c2ccccc21 [sertraline] | effective in producing a delay in ejaculation | comparable efficacy | –
